The text below walks through data of ChEMBL document CHEMBL2073785, “The role of the efflux transporter P-glycoprotein in brain penetration of prednisolone” (J Endocrinol, 2002).

This data set addresses ATP-dependent translocase ABCB1 (Homo sapiens, UniProt P08183). Put plainly: TP_TRANSPORTER: transepithelial transport (basal to apical) in MDR1-expressing LLC-PK1 cells. The format is functional, cell-based. Particulars: pig.

ATP-dependent translocase ABCB1, sequence (P08183 whole entry): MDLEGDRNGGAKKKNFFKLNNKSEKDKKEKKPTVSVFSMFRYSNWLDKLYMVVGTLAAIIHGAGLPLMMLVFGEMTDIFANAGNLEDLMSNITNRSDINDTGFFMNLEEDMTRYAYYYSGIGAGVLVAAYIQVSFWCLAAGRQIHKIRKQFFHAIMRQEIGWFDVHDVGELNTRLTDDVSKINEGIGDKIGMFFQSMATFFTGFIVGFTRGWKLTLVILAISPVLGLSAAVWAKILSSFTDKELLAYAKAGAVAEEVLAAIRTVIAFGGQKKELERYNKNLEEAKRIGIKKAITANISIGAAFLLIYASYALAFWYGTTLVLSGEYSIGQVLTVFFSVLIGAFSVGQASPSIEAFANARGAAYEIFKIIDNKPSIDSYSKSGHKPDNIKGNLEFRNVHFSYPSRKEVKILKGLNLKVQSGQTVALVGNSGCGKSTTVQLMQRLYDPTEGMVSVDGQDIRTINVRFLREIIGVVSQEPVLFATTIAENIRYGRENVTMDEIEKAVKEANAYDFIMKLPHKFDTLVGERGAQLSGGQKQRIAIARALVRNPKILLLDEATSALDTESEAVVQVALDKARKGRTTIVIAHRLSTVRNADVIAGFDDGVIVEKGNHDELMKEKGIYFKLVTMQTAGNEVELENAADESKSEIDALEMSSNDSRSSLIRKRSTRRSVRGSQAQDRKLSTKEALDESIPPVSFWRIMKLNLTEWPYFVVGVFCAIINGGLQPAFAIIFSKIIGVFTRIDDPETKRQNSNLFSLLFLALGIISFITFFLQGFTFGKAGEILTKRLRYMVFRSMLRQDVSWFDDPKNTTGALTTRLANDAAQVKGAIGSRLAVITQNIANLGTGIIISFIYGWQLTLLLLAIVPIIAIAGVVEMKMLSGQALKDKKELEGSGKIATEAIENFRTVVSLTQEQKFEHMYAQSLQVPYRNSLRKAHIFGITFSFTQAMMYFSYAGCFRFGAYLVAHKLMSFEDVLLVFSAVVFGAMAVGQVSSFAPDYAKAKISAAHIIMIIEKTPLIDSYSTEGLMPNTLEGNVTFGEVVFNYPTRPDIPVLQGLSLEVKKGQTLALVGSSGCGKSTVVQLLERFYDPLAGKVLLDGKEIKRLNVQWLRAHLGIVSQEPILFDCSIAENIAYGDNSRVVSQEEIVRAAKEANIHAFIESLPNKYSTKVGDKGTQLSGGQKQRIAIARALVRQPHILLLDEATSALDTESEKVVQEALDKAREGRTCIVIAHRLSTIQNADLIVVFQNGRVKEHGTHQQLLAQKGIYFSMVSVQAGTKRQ

With `C[C@]12CCC(=O)C=C1CC[C@@H]1[C@@H]2CC[C@@]2(C)[C@H]1CC[C@]2(O)C(=O)CO` [CORTODOXONE], the Activity result is “is not a substrate [-]”.
